Test results reported in patent publication US20150031702A1, “PI3K INHIBITORS FOR TREATING COUGH” (GlaxoSmithkline Intellectual Property (No.2) Limited, priority 2012, published 2015).

Tested on: dissociated dorsal ganglion sensory neurons
Experiment: Sensitization assay: capsaicin-induced Calcium Imaging response after sensitizing cocktail
Assay type: cell-based, mouse
Settings: co-incubation with various doses of compound (0.002-1000 nM); sensitizing cocktail NGF, GDNF, PGE2, 1β; 3rd capsaicin-induced peak, Fura-2 f340/f380; FIG. 1
Text: Capsaicin, the active ingredient in pepper sprays, is an irritant that causes noxious respiratory sensations and reflexes including sneezing and coughing in humans. Capsaicin binds to Transient Receptor Potential Vanilloid 1 (TRPV1), whose expression is enriched in both somatic and visceral nociceptors. Exaggerated response to inhaled capsaicin can be seen in subjects with IPF or with cough hypersensitivity syndrome and can be used as a test. Increased reactivity to capsaicin is generally considered a marker of sensitization of nociceptors. Capsaicin effects in sensory neurons dissected from mouse peripheral ganglia can be used as a model to identify nociceptors and to study the sensitization mechanisms in vitro. Response to capsaicin can be quantified in a relatively large population of dissociated sensory neurons using the method of Calcium Imaging. […]
Each point represents how well the capsaicin-induced peak is reduced by the drug when compared with negative control (1, no sensitizing solution, no GSK-1) and positive control (0, sensitizing solution, no GSK-1). Calculated, it is:
Where C=the average relative f340/f380 value of peak 3 for the sensitization control (sensitizing solution, no GSK-1). X=the individual relative f340/f380 value to be calculated, and N=the average relative f340/f380 value of peak 3 for the negative control (no sensitization solution, no GSK-1).

COc1ncc(-c2ccc3ncnc(N4CCOCC4)c3c2)cc1NS(=O)(=O)c1ccc(F)cc1F [GSK-1, 2,4-difluoro-N-{2-(methyloxy)-5-[4-(4-morpholinyl)-6-quinazolinyl]-3-pyridinyl}benzenesulfonamide]
Effect on enhancement of the Calcium Imaging response to capsaicin by the sensitizing cocktail: dose-dependently abolished
